Measured values published in patent US9249129B2, “Morpholino substituted urea derivatives as mTOR inhibitors” (CELLZOME LIMITED, priority 2010, dated 2016).
Read-outs that look alike come from different tables or passages of the source.

Assays:
[1] = target: T1, DNA-dependent protein kinase (DNA-PK) (Homo sapiens, UniProt P78527); test: kinobeads assay, DNA-PK (dot blot detection); assay type: binding
T1 construct: endogenous in cells; host or cells: Jurkat cells (ATCC TIB-152, clone E6-1), lysate
Summary of the method: (§1)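 Jurkat cell lysate (5 mg/ml protein) was incubated with test compounds and kinobeads (immobilized phenylthiazole and phenylmorpholin-chromen ligands) for 2 h in the cold with shaking. Bead-bound kinase was SDS-eluted and quantified by antibody dot blot with infrared detection. IC50 values came from dose-response curves.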

[2] = target: T2, PI3Kγ (Homo sapiens, UniProt P48736); test: kinobeads assay, PI3K gamma (dot blot detection); assay type: binding; settings: Table 4, read-out: Inhibition values (IC50) PI3Kg
T2 construct: endogenous in cells; host or cells: Jurkat cells (ATCC TIB-152) lysate, the only lysate described

[3] = target: T3, PI3Kα (Homo sapiens, UniProt P42336); test: kinobeads assay, PI3K alpha (dot blot detection); assay type: binding; settings: Table 4, read-out: Inhibition values (IC50) PI3Ka
T3 construct: endogenous in cells; host or cells: Jurkat cells (ATCC TIB-152) lysate, the only lysate described

[4] = system: Akt serine-473 phosphorylation in HEK293T/17 cells; test: In vitro phospho-Akt cellular assay (pAkt S473); assay type: cell-based; settings: Homo sapiens, Table 6, 2 hours, Akt Ser473, read-out: pAKT (Phospho-Akt cell assay data, activity level)
Description: In Vitro Phospho-S6 and Phospho-Akt Cellular Assay
Activation of mTOR signaling results in phosphorylation of several downstream targets. In cells, mTOR exists in two different protein complexes. The mTOR Complex-1 (mTORC1) phosphorylates and activates S6 Kinase 1 (S6K1) and S6 Kinase 2 (S6K2) (also known as p70S6K) which then phosphorylate S6 Ribosomal Protein (S6RP) (also known as RPS6). S6RP is phosphorylated on serine 235, serine 236, serine 240 and serine 244 by both pS6K1 and pS6K2. The mTOR Complex-2 (mTORC2) phosphorylates AKT on serine 473 which activates the AKT signaling pathway.
The assay measures a test compound's inhibition of S6RP serine-240/244 phosphorylation and inhibition of Akt serine-473 phosphorylation in human embryonic kidney derived HEK293T/17 cells (ATCC CRL-11268).
The HEK293T/17 cell line is maintained in DMEM media (Invitrogen catalogue number 41965-039) supplemented with 10% FCS at 37° C. in a 5% CO2 humidified incubator.
Cells are seeded in 96-well plates at 40,000 cells/well (pS6RP S240/244 assay) or 80,000 cells/well (pAkt 5473 assay) in 90 μl growth media (DMEM, 2% FCS). Plates are incubated for 1 hour in a humidified incubator to allow the cells to adhere. Cells are treated with 8 concentrations of test compounds or DMSO alone for controls (final DMSO concentration 0.1%) and incubated at 37° C. for 2 hours. Then 20 μl of 5× concentrated lysis buffer (750 mM NaCl, 100 mM Tris pH7.4, 5 mM EDTA, 5 mM EGTA, 5% Triton X-100) is added, plates are sealed and incubated for 15 minutes at 4° C. with gentle shaking. After cell lysis, 25 μl cell lysate is transferred to a MesoScale plate coated with an antibody to pS6RP Ser240/244 (MesoScale Discovery K150DGD-3) or an antibody to pAkt Ser 473 (MesoScale Discovery K151DGD-3). Plates have been blocked before by incubation with 150 μl MesoScale Discovery Blocking Solution-A for 1 hour at room temperature followed by washing with 150 μl 1× Tris wash buffer per well. After the transfer of the cell lysate to the MSD plate, the pS6RP (or pAkt) protein is captured on the coated antibody by incubation at room temperature for 1 hour with gentle shaking. After the capture step the plate is washed three times with 150 μl of 1× Tris wash buffer per well. Then 25 μl detection antibody conjugated with a Sulfo-Tag is added and incubated for 1 hour at room temperature with gentle shaking. Subsequently the antibody solution is removed and the plate is washed 3 times with 150 μl 1× Tris wash buffer per well and 150 μl Read buffer is added. The plates are analysed on a MSD 2400 Plate Reader (MesoScale Discovery). Data analysis is performed using nonlinear regression for a sigmoidal dose-response with a variable slope.

[5] = target: T4, PI3K delta (PI3Kd) (Homo sapiens, UniProt O00329); test: kinobeads assay, PI3K delta (dot blot detection); assay type: binding
T4 construct: endogenous in cells; host or cells: Jurkat cells (ATCC TIB-152, clone E6-1), lysate
Summary of the method: as §1

[6] = target: T5, mTOR (Homo sapiens, UniProt P42345); test: mTOR kinobeads assay (dot blot detection); assay type: binding
T5 construct: endogenous in cells; host or cells: Jurkat cells (ATCC TIB-152, clone E6-1), lysate
Summary of the method: as §1

[7] = system: S6RP serine-240/244 phosphorylation in HEK293T/17 cells; test: In vitro phospho-S6 cellular assay (pS6RP S240/244); assay type: cell-based; settings: Homo sapiens, Table 6, 2 hours, S6RP Ser240/244, read-out: pS6 (phospho-S6 cell assay data, activity level)
Summary of the method: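 HEK293T/17 cells in DMEM with 2% FCS treated with 8 compound concentrations (0.1% DMSO) for 2 h at 37 °C, then lysed. Phospho-S6RP Ser240/244 or phospho-Akt Ser473 quantified by MesoScale sandwich immunoassay with Sulfo-Tag detection; IC50 from variable-slope sigmoidal fit.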

[8] = target: T6, PI3Kβ (Homo sapiens, UniProt P42338); test: kinobeads assay, PI3K beta (dot blot detection); assay type: binding; settings: Table 4, read-out: Inhibition values (IC50) PI3Kb
T6 construct: endogenous in cells; host or cells: Jurkat cells (ATCC TIB-152) lysate, the only lysate described

[9] = Table 4, read-out: Inhibition values (IC50) DNAPK
[10] = Table 4, read-out: Inhibition values (IC50) PI3Kd
[11] = Table 4, read-out: Inhibition values (IC50) mTOR

T4 sequence (O00329 whole entry): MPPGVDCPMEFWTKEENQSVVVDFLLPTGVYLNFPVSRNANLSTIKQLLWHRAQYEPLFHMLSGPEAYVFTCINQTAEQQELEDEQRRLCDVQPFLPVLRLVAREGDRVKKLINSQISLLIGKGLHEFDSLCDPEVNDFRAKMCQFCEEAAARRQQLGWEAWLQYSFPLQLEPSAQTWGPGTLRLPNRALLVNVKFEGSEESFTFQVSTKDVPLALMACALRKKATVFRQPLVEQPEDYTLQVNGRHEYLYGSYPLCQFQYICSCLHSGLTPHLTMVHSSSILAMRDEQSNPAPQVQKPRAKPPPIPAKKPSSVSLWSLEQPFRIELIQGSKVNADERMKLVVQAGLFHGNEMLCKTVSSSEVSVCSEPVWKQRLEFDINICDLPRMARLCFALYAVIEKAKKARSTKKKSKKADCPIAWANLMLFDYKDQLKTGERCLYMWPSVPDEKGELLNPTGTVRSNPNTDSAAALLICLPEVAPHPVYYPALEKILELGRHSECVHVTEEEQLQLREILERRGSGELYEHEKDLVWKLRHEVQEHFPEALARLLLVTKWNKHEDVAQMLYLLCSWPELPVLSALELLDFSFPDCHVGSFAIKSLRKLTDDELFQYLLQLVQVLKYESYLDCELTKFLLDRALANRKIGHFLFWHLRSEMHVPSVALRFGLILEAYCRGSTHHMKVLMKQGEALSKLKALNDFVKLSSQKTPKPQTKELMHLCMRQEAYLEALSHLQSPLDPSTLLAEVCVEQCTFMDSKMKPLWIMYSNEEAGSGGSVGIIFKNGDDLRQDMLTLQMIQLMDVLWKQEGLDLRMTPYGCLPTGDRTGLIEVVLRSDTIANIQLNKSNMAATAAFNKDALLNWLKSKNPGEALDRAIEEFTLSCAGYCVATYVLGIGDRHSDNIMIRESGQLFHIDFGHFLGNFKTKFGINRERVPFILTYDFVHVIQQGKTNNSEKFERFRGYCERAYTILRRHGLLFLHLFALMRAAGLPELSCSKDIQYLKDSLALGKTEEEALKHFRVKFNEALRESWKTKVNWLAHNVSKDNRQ
T4 sequence (P27986 whole entry partner): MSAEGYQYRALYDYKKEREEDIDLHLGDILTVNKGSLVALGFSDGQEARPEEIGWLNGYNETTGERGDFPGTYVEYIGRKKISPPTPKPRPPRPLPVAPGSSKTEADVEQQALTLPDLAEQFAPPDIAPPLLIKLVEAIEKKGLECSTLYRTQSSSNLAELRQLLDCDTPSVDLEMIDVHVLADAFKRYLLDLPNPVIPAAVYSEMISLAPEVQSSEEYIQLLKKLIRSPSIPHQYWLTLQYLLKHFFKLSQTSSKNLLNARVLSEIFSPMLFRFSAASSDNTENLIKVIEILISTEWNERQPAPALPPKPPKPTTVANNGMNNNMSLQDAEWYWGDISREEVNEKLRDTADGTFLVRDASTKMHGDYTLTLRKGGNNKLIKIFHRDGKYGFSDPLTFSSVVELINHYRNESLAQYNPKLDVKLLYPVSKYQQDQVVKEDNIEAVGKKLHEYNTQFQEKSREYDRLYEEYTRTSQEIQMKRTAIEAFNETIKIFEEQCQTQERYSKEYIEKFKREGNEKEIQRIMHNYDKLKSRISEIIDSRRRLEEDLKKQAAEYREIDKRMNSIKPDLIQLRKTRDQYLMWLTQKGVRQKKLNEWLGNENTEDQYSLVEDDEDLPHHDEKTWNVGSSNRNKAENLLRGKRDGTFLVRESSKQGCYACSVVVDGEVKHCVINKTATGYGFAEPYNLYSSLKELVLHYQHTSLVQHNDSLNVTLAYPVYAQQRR
T6 sequence (P42338 whole entry): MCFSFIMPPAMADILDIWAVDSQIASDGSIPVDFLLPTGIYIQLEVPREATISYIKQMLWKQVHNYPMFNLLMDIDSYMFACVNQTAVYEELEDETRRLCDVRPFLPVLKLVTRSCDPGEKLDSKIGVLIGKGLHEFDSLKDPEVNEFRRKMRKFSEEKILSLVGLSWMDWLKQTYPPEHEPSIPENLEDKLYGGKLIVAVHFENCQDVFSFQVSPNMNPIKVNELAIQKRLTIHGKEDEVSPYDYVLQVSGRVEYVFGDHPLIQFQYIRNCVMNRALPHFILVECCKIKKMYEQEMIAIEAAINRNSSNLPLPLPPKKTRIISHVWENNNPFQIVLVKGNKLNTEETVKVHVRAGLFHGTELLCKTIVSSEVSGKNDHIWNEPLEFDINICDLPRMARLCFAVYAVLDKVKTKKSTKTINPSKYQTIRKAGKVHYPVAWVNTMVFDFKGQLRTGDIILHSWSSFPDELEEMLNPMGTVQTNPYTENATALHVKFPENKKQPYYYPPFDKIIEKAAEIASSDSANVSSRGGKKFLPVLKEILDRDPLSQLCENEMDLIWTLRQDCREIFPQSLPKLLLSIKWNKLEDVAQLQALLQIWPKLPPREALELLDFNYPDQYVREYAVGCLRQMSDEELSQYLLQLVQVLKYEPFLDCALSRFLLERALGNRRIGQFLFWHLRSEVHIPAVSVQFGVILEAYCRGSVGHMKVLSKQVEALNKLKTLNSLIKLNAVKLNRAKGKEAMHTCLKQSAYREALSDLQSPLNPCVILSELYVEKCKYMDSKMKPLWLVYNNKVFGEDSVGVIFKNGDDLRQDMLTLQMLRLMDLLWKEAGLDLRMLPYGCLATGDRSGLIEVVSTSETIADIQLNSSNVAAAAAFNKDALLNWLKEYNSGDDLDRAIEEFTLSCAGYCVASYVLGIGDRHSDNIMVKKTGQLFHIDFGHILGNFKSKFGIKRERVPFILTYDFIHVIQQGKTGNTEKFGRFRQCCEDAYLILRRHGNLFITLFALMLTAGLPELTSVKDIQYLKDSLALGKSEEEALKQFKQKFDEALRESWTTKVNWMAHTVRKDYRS
T6 sequence (P27986 whole entry partner): as the sequence (P27986 whole entry partner) above
T2 sequence (P48736 whole entry): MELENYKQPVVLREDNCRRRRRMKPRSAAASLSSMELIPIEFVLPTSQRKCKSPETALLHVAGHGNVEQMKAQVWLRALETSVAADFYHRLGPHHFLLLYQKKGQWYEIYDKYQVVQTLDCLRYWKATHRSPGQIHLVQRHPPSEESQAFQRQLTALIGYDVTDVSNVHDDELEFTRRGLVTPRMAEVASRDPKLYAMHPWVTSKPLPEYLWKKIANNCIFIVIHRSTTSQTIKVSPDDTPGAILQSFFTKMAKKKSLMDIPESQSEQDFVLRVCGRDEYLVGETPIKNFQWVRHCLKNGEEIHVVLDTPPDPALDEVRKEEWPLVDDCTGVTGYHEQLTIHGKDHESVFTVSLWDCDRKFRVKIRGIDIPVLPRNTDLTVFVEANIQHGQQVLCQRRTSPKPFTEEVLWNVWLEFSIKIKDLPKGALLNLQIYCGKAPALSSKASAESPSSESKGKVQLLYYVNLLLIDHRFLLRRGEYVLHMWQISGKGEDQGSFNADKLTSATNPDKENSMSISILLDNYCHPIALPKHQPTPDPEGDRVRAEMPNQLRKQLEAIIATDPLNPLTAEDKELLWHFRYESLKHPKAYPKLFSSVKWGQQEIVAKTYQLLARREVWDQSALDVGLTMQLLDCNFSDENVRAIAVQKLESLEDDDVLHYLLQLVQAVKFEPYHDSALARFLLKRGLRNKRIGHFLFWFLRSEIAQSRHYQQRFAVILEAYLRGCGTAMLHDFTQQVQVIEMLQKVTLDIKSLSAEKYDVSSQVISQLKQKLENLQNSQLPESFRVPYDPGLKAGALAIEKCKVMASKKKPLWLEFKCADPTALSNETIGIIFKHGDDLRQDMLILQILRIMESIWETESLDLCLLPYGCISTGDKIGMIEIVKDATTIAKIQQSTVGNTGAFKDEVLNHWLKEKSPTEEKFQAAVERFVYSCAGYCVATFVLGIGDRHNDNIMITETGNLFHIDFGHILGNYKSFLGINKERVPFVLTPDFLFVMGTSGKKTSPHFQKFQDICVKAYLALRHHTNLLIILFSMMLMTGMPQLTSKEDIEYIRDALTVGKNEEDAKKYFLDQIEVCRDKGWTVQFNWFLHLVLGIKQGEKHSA
T3 sequence (P42336 whole entry): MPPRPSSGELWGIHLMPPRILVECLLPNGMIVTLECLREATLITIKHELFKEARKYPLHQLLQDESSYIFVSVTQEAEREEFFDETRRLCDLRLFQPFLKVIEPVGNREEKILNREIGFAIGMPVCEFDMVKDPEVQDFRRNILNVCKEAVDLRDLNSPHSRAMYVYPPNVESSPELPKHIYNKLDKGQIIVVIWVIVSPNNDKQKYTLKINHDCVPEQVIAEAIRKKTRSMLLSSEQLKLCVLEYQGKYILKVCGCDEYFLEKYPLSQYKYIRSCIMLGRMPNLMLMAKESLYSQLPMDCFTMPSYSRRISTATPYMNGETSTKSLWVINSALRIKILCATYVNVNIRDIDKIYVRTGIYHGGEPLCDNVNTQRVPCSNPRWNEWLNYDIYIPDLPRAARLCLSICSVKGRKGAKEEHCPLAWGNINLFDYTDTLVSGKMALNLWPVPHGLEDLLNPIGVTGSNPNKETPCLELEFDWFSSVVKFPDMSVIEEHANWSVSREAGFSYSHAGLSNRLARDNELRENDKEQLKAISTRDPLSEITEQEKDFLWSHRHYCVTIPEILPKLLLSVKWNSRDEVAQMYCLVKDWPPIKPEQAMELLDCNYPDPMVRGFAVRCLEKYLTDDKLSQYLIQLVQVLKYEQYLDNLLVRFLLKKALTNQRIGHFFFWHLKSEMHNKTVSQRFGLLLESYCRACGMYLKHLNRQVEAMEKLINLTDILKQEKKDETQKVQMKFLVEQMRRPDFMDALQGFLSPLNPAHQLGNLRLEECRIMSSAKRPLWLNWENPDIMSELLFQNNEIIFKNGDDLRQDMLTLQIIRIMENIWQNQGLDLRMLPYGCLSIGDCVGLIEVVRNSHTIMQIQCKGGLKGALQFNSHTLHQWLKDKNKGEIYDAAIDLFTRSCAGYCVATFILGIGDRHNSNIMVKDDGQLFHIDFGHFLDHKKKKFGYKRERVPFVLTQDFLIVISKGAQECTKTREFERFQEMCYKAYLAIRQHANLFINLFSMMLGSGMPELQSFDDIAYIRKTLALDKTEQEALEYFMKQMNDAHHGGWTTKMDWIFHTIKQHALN
T3 sequence (P27986 whole entry partner): as the sequence (P27986 whole entry partner) above

IC50 [1, 9] [µM]	IC50 [2] [µM]	IC50 [3] [µM]	IC50 [5, 10] [µM]	IC50 [6, 11] [µM]	IC50 [8] [µM]	IC50 ([1]; Table 2, Jurkat cell lysate, read-out: Inhibition values (IC50) DNAPK) [µM]	IC50 ([5]; Table 2, Jurkat cell lysate, read-out: Inhibition values (IC50) PI3Kd) [µM]	IC50 ([6]; Table 2, Jurkat cell lysate, read-out: Inhibition values (IC50) mTor) [µM]	SMILES	IC50 [4] [µM]	IC50 [7] [µM]
≥ 10	≥ 10	≥ 10	≥ 10	0.1 to 1	≥ 10	–	–	–	C[C@H]1COCCN1c1cc(-c2cc(F)ccc2S(C)(=O)=O)nc(-c2ccc(NC(=O)NC3CC3)cc2)n1 [Example 77, (S)-1-cyclopropyl-3-(4-(4-(5-fluoro-2-(methylsulfonyl)phenyl)-6-(3-methylmorpholino)pyrimidin-2-yl)phenyl)urea]	< 0.1	< 0.1
≥ 10	≥ 10	≥ 10	≥ 10	0.1 to 1	≥ 10	–	–	–	C[C@@H](CO)NC(=O)Nc1ccc(-c2cc(-c3cc(F)ccc3S(C)(=O)=O)nc(N3CCOC[C@@H]3C)n2)cc1 [Example 74, 1-(4-(6-(5-fluoro-2-(methylsulfonyl)phenyl)-2-((S)-3-methylmorpholino)pyrimidin-4-yl)phenyl)-3-((S)-1-hydroxypropan-2-yl)urea]	< 0.1	< 0.1
≥ 10	≥ 10	≥ 10	≥ 10	< 0.1	≥ 10	–	–	–	C[C@H]1COCCN1c1cc(-c2cc(F)ccc2S(C)(=O)=O)nc(-c2ccc(NC(=O)NCCO)cc2)n1 [Example 78, (S)-1-(4-(4-(5-fluoro-2-(methylsulfonyl)phenyl)-6-(3-methylmorpholino)pyrimidin-2-yl)phenyl)-3-(2-hydroxyethyl)urea]	< 0.1	< 0.1
≥ 10	≥ 10	≥ 10	≥ 10	1 to 10	≥ 10	≥ 10	≥ 10	1 to 10	C[C@H]1COCCN1c1cc(-c2cc(F)ccc2S(C)(=O)=O)nc(-c2ccc(NC(=O)NC3CC3)cc2F)n1 [Example 66, (S)-1-cyclopropyl-3-(3-fluoro-4-(4-(5-fluoro-2-(methylsulfonyl)phenyl)-6-(3-methylmorpholino)pyrimidin-2-yl)phenyl)urea]	–	0.1 to 1
